Data: the supplement of paper PMC8671470

Key:
Settings in all cases: 72 h
SHI-1 [1] = test: cell viability (% survival relative to DMSO control, bortezomib = 0%); higher = less cytotoxic
Summary of the method: (§1)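 Percent survival is reported as the mean of duplicate wells. Cells from 10 AML and 5 CML lines were plated in 384-well plates containing compounds at 1, 10, 100, 1000 or 10000 nM and kept for 72 h at 37 °C in 5% CO2. Readout used CellTiter-Glo luminescence, scaled so that vehicle equals 100% and a 10 µM positive control equals 0%.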

K-562 [2] = test: as above
Summary of the method: as §1

BV-173 [3] = test: as above
Summary of the method: as §1

KU-812 [4] = test: as above
Summary of the method: as §1

Mono-Mac-6 [5] = test: as above
Summary of the method: as §1

NOMO-1 [6] = test: as above
Summary of the method: as §1

THP-1 [7] = test: as above
Summary of the method: as §1

HEL [8] = test: as above
Summary of the method: as §1

LAMA-84 [9] = test: as above
Summary of the method: as §1

MV4-11 [10] = test: as above
Summary of the method: as §1

HL-60 [11] = test: as above
Summary of the method: as §1

ML-2 [12] = test: as above
Summary of the method: as §1

SHI-1 [13] = test system: SHI-1
Summary of the method: (§2)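 In 384-well plates holding acoustically pre-printed compounds at five tenfold doses from 1 to 10,000 nM, in duplicate, fifteen myeloid leukaemia cell lines were grown in RPMI 1640 for 72 h at 37 °C with 5% CO2. Luminescent ATP viability was scaled between vehicle and a positive control at 10 µM. The IC50 was then taken from log-logistic dose–response fits with four parameters.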

KCL-22 = test system: KCL-22
Summary of the method: as §2

K-562 [14] = test system: K-562
Summary of the method: as §2

BV-173 [15] = test system: BV-173
Summary of the method: as §2

KU-812 [16] = test system: KU-812
Summary of the method: as §2

Mono-Mac-6 [17] = test system: Mono-Mac-6
Summary of the method: as §2

NOMO-1 [18] = test system: NOMO-1
Summary of the method: as §2

THP-1 [19] = test system: THP-1
Summary of the method: as §2

HEL [20] = test system: HEL
Summary of the method: as §2

LAMA-84 [21] = test system: LAMA-84
Summary of the method: as §2

MV4-11 [22] = test system: MV4-11
Summary of the method: as §2

MOLM-13 = test system: MOLM-13
Summary of the method: as §2

KG-1 = test system: KG-1
Summary of the method: as §2

HL-60 [23] = test system: HL-60
Summary of the method: as §2

ML-2 [24] = test system: ML-2
Summary of the method: as §2

HL-60 [25] = test: cell viability (% survival relative to DMSO control); higher = less cytotoxic
Summary of the method: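 A rescreen of the full library used HL-60 cells in RPMI 1640 with 10% FBS on 384-well plates, run in duplicate at five tenfold concentrations (1–10,000 nM). Each screen included DMSO or 100 nM of one of three metabolic inhibitors and ran 72 h at 37 °C, 5% CO2. CellTiter-Glo viability was scaled between DMSO and 10 μM proteasome-inhibitor wells. Any area under the curve comes from four-parameter log-logistic fits with drc and PharmacoGx.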

C[C@](N)(Cc1ccc(O)cc1)C(=O)O [Metirosine]
cell viability [%]
Settings	1 nM	10 nM	100 nM	1000 nM	10000 nM
BV-173 [3]	98.4	89.1	115	86	114
HEL [8]	101	92.6	99.6	94.7	108
HL-60 [11]	99.2	93.7	89.7	97.6	107
K-562 [2]	113	90.2	101	107	103
KU-812 [4]	89.4	91.1	102	91.9	96.5
LAMA-84 [9]	102	108	107	105	99.2
ML-2 [12]	91.1	96.7	107	97.9	93.5
MV4-11 [10]	107	87.3	92.3	107	101
Mono-Mac-6 [5]	99.2	101	107	92.9	104
NOMO-1 [6]	95	96.6	103	93.6	102
SHI-1 [1]	103	105	101	101	91.4
THP-1 [7]	98.3	99.5	105	94.3	101

Settings	IC50 (cell viability) [µM]
BV-173 [15]	> 10
HEL [20]	> 10
HL-60 [23]	> 10
K-562 [14]	> 10
KCL-22	> 10
KG-1	> 10
KU-812 [16]	> 10
LAMA-84 [21]	> 10
ML-2 [24]	> 10
MOLM-13	> 10
MV4-11 [22]	> 10
Mono-Mac-6 [17]	> 10
NOMO-1 [18]	> 10
SHI-1 [13]	> 10
THP-1 [19]	> 10

cell viability [%], HL-60 [25]
Settings	0.001 µM	0.01 µM	0.1 µM	1 µM	10 µM
co-treatment: AZD3965 100 nM	101	101.8	99	95.8	97.76
co-treatment: DMSO vehicle	108	104	101	101	103
co-treatment: GSK2194069 100 nM	105	104	98.9	93.8	99.6
co-treatment: pictilisib 100 nM	116	105	98.9	81.1	105

CCCCN1C[C@H](O)[C@@H](O)[C@H](O)[C@H]1CO [Miglustat]
cell viability [%]
Settings	1 nM	10 nM	100 nM	1000 nM	10000 nM
BV-173 [3]	90.7	104	95.6	97.8	86.8
HEL [8]	92.6	103	95.2	101	93.6
HL-60 [11]	87.6	81.8	98.7	101	91.8
K-562 [2]	94.4	95.8	94.4	99.4	89.9
KU-812 [4]	87.9	94.6	89.5	105	86.7
LAMA-84 [9]	94.3	97.8	96.4	103	92.8
ML-2 [12]	95.4	112	86.5	101	94.9
MV4-11 [10]	99.2	91.3	103	94.4	92.2
Mono-Mac-6 [5]	82.9	90.4	92.4	95.4	92.7
NOMO-1 [6]	94.3	98.4	94	103	90
SHI-1 [1]	106	93	102	98.6	88.7
THP-1 [7]	91.1	93.3	89.6	102	94.7

Settings	IC50 (cell viability) [µM]
BV-173 [15]	> 10
HEL [20]	> 10
HL-60 [23]	> 10
K-562 [14]	> 10
KCL-22	> 10
KG-1	> 10
KU-812 [16]	> 10
LAMA-84 [21]	> 10
ML-2 [24]	> 10
MOLM-13	> 10
MV4-11 [22]	> 10
Mono-Mac-6 [17]	> 10
NOMO-1 [18]	> 10
SHI-1 [13]	> 10
THP-1 [19]	> 10

cell viability [%], HL-60 [25]
Settings	0.001 µM	0.01 µM	0.1 µM	1 µM	10 µM
co-treatment: AZD3965 100 nM	106	98.2	106	96.6	100
co-treatment: DMSO vehicle	101	101	103	98.7	98
co-treatment: GSK2194069 100 nM	91.5	94.4	104.5	99.5	101
co-treatment: pictilisib 100 nM	104	109	112	107	101

C=C(C=NNC(=N)N)NNC(=N)N [Mitoguazone]
cell viability [%]
Settings	1 nM	10 nM	100 nM	1000 nM	10000 nM
BV-173 [3]	105	111	107	71	13.3
HEL [8]	103	108	97.5	93.2	50.4
HL-60 [11]	85.2	73.2	148	97.7	32.9
K-562 [2]	96.1	105	114	67	29.3
KU-812 [4]	105	107	96.5	83	30.6
LAMA-84 [9]	99.9	104	100	86.6	24.4
ML-2 [12]	97.7	104	100	56.6	24.7
MV4-11 [10]	105	99.2	115	59.8	10.4
Mono-Mac-6 [5]	92.4	92.3	85.5	55.3	18.1
NOMO-1 [6]	94.9	102	90.9	61.7	16.2
SHI-1 [1]	93.8	89.2	95.4	59.8	20.6
THP-1 [7]	101	104	94.9	76.1	43.6

Settings	IC50 (cell viability) [µM]
BV-173 [15]	1.44
HEL [20]	9.12
HL-60 [23]	7.01
K-562 [14]	1.32
KCL-22	4.4
KG-1	3.31
KU-812 [16]	4.55
LAMA-84 [21]	2.29
ML-2 [24]	0.916
MOLM-13	0.944
MV4-11 [22]	1.13
Mono-Mac-6 [17]	1.24
NOMO-1 [18]	1.59
SHI-1 [13]	1.1
THP-1 [19]	3.08

cell viability [%], HL-60 [25]
Settings	0.001 µM	0.01 µM	0.1 µM	1 µM	10 µM
co-treatment: AZD3965 100 nM	98	102	102	93.1	48.6
co-treatment: DMSO vehicle	99.2	100.1	97.8	101	69.6
co-treatment: GSK2194069 100 nM	101	112	102.2	98.3	76.9
co-treatment: pictilisib 100 nM	108	120	104	112	56.7

CCCCC/C=C\C/C=C\C/C=C\C/C=C\CCCCN1C(=O)C=CC1=O [N-Arachidonylmaleimide]
cell viability [%]
Settings	1 nM	10 nM	100 nM	1000 nM	10000 nM
BV-173 [3]	99.9	97.7	97.8	94.8	96.8
HEL [8]	98.7	102	97.9	103	89.7
HL-60 [11]	111	94.7	81.8	125	88.1
K-562 [2]	103	91.5	93.4	110	90.6
KU-812 [4]	103	97.9	94.6	97.2	91.4
LAMA-84 [9]	96.8	99.9	98.4	97.7	96
ML-2 [12]	95.9	97.1	96.6	94.3	91
MV4-11 [10]	82.1	97.8	106	93.2	95.3
Mono-Mac-6 [5]	94	101	91.1	107	101
NOMO-1 [6]	95.5	98.1	103	96.5	99.4
SHI-1 [1]	100	102	96.7	104	88.9
THP-1 [7]	102	99.2	101	97.7	96.3

Settings	IC50 (cell viability) [µM]
BV-173 [15]	> 10
HEL [20]	> 10
HL-60 [23]	> 10
K-562 [14]	> 10
KCL-22	> 10
KG-1	> 10
KU-812 [16]	> 10
LAMA-84 [21]	> 10
ML-2 [24]	> 10
MOLM-13	> 10
MV4-11 [22]	> 10
Mono-Mac-6 [17]	> 10
NOMO-1 [18]	> 10
SHI-1 [13]	> 10
THP-1 [19]	> 10

cell viability [%], HL-60 [25]
Settings	0.001 µM	0.01 µM	0.1 µM	1 µM	10 µM
co-treatment: AZD3965 100 nM	98.7	89.7	98.58	99.6	101
co-treatment: DMSO vehicle	92.6	95.4	101.04	101	100.9
co-treatment: GSK2194069 100 nM	96.8	84.8	98.4	100	100.5
co-treatment: pictilisib 100 nM	96.4	84.8	97	97.89	103

CCCCCCCCCCC[C@@H](C[C@@H]1OC(=O)[C@H]1CCCCCC)OC(=O)[C@H](CC(C)C)NC=O [Orlistat]
cell viability [%]
Settings	1 nM	10 nM	100 nM	1000 nM	10000 nM
BV-173 [3]	86.3	92	79.9	87.5	82
HEL [8]	102	107	95.3	101	90.8
HL-60 [11]	122	105	108	106	98.7
K-562 [2]	118	85.1	88.2	103	103
KU-812 [4]	98.3	92.1	96.4	98.5	89.6
LAMA-84 [9]	101	103	93.9	93.7	94.4
ML-2 [12]	93.6	101	93.6	88.6	86
MV4-11 [10]	107	97.2	71.6	109	79.8
Mono-Mac-6 [5]	114	91.1	97.7	103	87.7
NOMO-1 [6]	101	95	96.6	106	96.5
SHI-1 [1]	101	102	106	108	102
THP-1 [7]	97.5	99	85.2	95	94.6

Settings	IC50 (cell viability) [µM]
BV-173 [15]	> 10
HEL [20]	> 10
HL-60 [23]	> 10
K-562 [14]	> 10
KCL-22	> 10
KG-1	> 10
KU-812 [16]	> 10
LAMA-84 [21]	> 10
ML-2 [24]	> 10
MOLM-13	> 10
MV4-11 [22]	> 10
Mono-Mac-6 [17]	> 10
NOMO-1 [18]	> 10
SHI-1 [13]	> 10
THP-1 [19]	> 10

cell viability [%], HL-60 [25]
Settings	0.001 µM	0.01 µM	0.1 µM	1 µM	10 µM
co-treatment: AZD3965 100 nM	98.6	99.5	102	94.9	100
co-treatment: DMSO vehicle	93.7	105	104	98.57	99.8
co-treatment: GSK2194069 100 nM	94.4	96.4	109	94.7	77.7
co-treatment: pictilisib 100 nM	99.1	109	95.6	94.4	90.5
